Measurements from the RepoRT retention time repository (doi:10.1021/acs.analchem.2c02893).

Assay: RP, Thermo Scientific Acclaim RSLC 120 C18, 100 × 2.1 mm, 2.2 µm, 30 °C, 0.2 mL/min, estimated dead time 1.1 min; A: 90% water + 10% methanol + 0.01% formic acid + 5 mM ammonium formate, pH 3.61; B: methanol + 0.01% formic acid + 5 mM ammonium formate, pH 3.61; gradient (min/%B) 0/1 1/1 2/39 13/99.9 15/99.9 15.1/1 20.1/1
Details: stereoisomer not certain

Structure (SMILES)	LC retention time [min]
CC(N)Cc1ccccc1F (stereo unspecified) [Amphetamine (2-F-)]	4.24
CC(N)Cc1cccc(F)c1 (stereo unspecified) [Amphetamine (3-F-)]	4.39
CC(N)Cc1ccc(F)cc1 (stereo unspecified) [Amphetamine (4-F-)]	4.39
CNC(C)Cc1ccccc1F (stereo unspecified) [Amphetamine-2-F-Methyl (2-F-methamphetamine)]	4.33
Cc1ccccc1CC(C)N (stereo unspecified) [Amphetamine-2-methyl (ortetamine)]	5.17
CNC(C)Cc1cccc(F)c1 (stereo unspecified) [Amphetamine-3-F-Methyl (3-F-methamphetamine)]	4.39
Cc1cccc(CC(C)N)c1 (stereo unspecified) [Amphetamine-3-methyl]	5.17
CNC(C)Cc1ccc(F)cc1 (stereo unspecified) [Amphetamine-4-F-Methyl (4-F-methamphetamine)]	4.43
CNC(C)Cc1ccccc1 (stereo unspecified) [Amphetamine-Methyl (methamphetamine)]	4.21
CCNC(C)Cc1ccccc1 (stereo unspecified) [Amphetamine-N-Ethyl]	4.4
CCCNC(C)Cc1ccccc1 (stereo unspecified) [Amphetamine-N-Propyl]	4.83
CC(N)Cc1ccc(O)cc1 (stereo unspecified) [Amphetamine-P-hydroxy]	2.98
CC1(C)SC2C(NC(=O)C(N)c3ccccc3)C(=O)N2C1C(=O)O (stereo unspecified) [Ampicillin]	4.21
Nc1cc(-c2ccncc2)c[nH]c1=O [Amrinone]	2.88
COc1ccc(C(O)(c2cncnc2)C2CC2)cc1 (stereo unspecified) [Ancymidol]	7.15
Clc1nc(Cl)nc(Nc2ccccc2Cl)n1 [Anilazine (Dyrene)]	9.74
COP(=S)(OC)SCC(=O)N(c1ccc(Cl)cc1)C(C)C [Anilofos]	10.8
c1ccc(CN(CC2=NCCN2)c2ccccc2)cc1 [Antazoline]	6.41
Cc1c(N)c(=O)n(-c2ccccc2)n1C [Antipyrine-4-Amino (4-AAP)]	4.69
CC(=O)Nc1c(C)n(C)n(-c2ccccc2)c1=O [Antipyrine- 4-Acetamido]	3.94
Cc1c(NC=O)c(=O)n(-c2ccccc2)n1C [Antipyrine- 4-Formylamino]	3.96

Structure (SMILES)	LC retention time [min]
CN1CCc2cccc3c2C1Cc1ccc(O)c(O)c1-3 (stereo unspecified) [Apomorphine]	4.28
NCC(O)c1ccccc1 (stereo unspecified) [Apophedrin  (Phenylethanolamine)]	2.84
Nc1cc(Cl)c(NC2=NCCN2)c(Cl)c1 [Apraclonidin]	3.09
CCN(CC)CCCN(c1ccccc1)C1Cc2ccccc2C1 [Aprindine]	8.85
C=CCC(C(=O)NC(N)=O)C(C)C (stereo unspecified) [Apronalide]	6.94
CC(COc1ccc(C(C)(C)C)cc1)OS(=O)OCCCl (stereo unspecified) [Aramite (total)]	12.2
COC(=O)C1=CCCN(C)C1 [Arecoline]	1.74
O=C1CCc2ccc(OCCCCN3CCN(c4cccc(Cl)c4Cl)CC3)cc2N1 [Aripiprazole]	8.63
Nc1ncnc2c1ncn2Cc1c(F)cccc1Cl [Arprinocid]	6.7
CN1CC2c3ccccc3Oc3ccc(Cl)cc3C2C1 (stereo unspecified) [Asenapine]	7.39
COC(=O)C(Cc1ccccc1)NC(=O)C(N)CC(=O)O (stereo unspecified) [Aspartame]	5.01
CCCOP(=S)(OCCC)OP(=S)(OCCC)OCCC [Aspon]	12.9
COc1ccc(CCN2CCC(Nc3nc4ccccc4n3Cc3ccc(F)cc3)CC2)cc1 [Astemizole]	8.03
COC(=O)NS(=O)(=O)c1ccc(N)cc1 [Asulam]	3.41
COC(=O)NC(C(=O)NC(Cc1ccccc1)C(O)CN(Cc1ccc(-c2ccccn2)cc1)NC(=O)C(NC(=O)OC)C(C)(C)C)C(C)(C)C (stereo unspecified) [Atazanavir]	10.9
CC(C)NCC(O)COc1ccc(CC(=O)O)cc1 (stereo unspecified) [Atenolol acid (Metoprolol acid)]	3.93
NCC(O)COc1ccc(CC(N)=O)cc1 (stereo unspecified) [Atenolol-desisopropyl]	2
CC(C)NCC(O)COc1ccc(CC(N)=O)cc1 (stereo unspecified) [Atenolol]	3.09
CNCCC(Oc1ccccc1C)c1ccccc1 (stereo unspecified) [Atomoxetine]	7.63
CC(C)C(=O)C1(C(=O)Nc2ccccc2)OC1(C(=O)c1ccc(F)cc1)c1ccccc1 (stereo unspecified) [Atorvastatin IMP D (epoxide)]	10.3
CC(C)c1c(C(=O)Nc2ccccc2)c(-c2ccccc2)c(-c2ccc(F)cc2)n1CCC(O)CC(O)CC(=O)O (stereo unspecified) [Atorvastatin]	9.96

Structure (SMILES)	LC retention time [min]
CCNc1nc(NC(C)C)nc(OC)n1 [Atraton]	7.81
CCNc1nc(NC(C)C)[nH]c(=O)n1 [Atrazine-2-hydroxy]	5.03
CC(C)Nc1nc(N)[nH]c(=O)n1 [Atrazine-desethyl-2-hydroxy (=Prometon-Hydroxy-Desisopropyl)]	3.16
Nc1nc(N)nc(Cl)n1 [Atrazine-desethyl-desisopropyl]	3.03
CC(C)Nc1nc(N)nc(Cl)n1 [Atrazine-desethyl]	5.73
CN1C2CCC1CC(OC(=O)C(CO)c1ccccc1)C2 (stereo unspecified) [Atropine]	4.36
COc1ccc(CNc2nc(N3CCCC3CO)ncc2C(=O)NCc2ncccn2)cc1Cl (stereo unspecified) [Avanafil]	8.76
CCC(C)C1OC2(C=CC1C)CC1CC(CC=C(C)C(OC3CC(OC)C(OC4CC(OC)C(O)C(C)O4)C(C)O3)C(C)C=CC=C3COC4C(O)C(C)=CC(C(=O)O1)C34O)O2 (stereo unspecified) [AvermectinB1a (Abamectin)]	13.6
COC1CC(OC2C(C)OC(OC3C(C)=CCC4CC(CC5(C=CC(C)C(C(C)C)O5)O4)OC(=O)C4C=C(C)C(O)C5OCC(=CC=CC3C)C45O)CC2OC)OC(C)C1O (stereo unspecified) [AvermectinB1b (Abamectin)]	13.4
OC(c1ccccc1)(c1ccccc1)C1CCNCC1 [Azacyclonol]	6.19
CC=C(C)C(=O)OC1CC(OC(C)=O)C2(C(=O)OC)COC3C2C12COC(O)(C(=O)OC)C2C(C)(C12OC1(C)C1CC2OC2OC=CC21O)C3O (stereo unspecified) [Azadirachtin]	7.56
CCCC1C(=O)N2C(N(C)C)=Nc3ccc(C)cc3N2C1=O (stereo unspecified) [Azapropazone]	6.54
CN1CCC(=C2c3ccccc3CCc3cccnc32)CC1 [Azatadine]	5.99
CN1CCCC(n2nc(Cc3ccc(Cl)cc3)c3ccccc3c2=O)CC1 (stereo unspecified) [Azelastine]	7.59
COc1cc(OC)nc(NC(=O)NS(=O)(=O)c2c(-c3nnn(C)n3)cnn2C)n1 [Azimsulfuron]	7.62
CCOP(=S)(OCC)SCn1nnc2ccccc2c1=O [Azinphos-ethyl]	10.2
COP(=S)(OC)SCn1nnc2ccccc2c1=O [Azinphos-methyl (Guthion)]	8.89
CSc1nc(N=[N+]=[N-])nc(NC(C)C)n1 [Aziprotryne]	9.71
CCC1OC(=O)C(C)C(OC2CC(C)(OC)C(O)C(C)O2)C(C)C(OC2OC(C)CC(N(C)C)C2O)C(C)(O)CC(C)CN(C)C(C)C(O)C1(C)O (stereo unspecified) [Azithromycin]	5.98
